According to ChEMBL document CHEMBL1201862, “PubChem BioAssay data set” (2004):
Counter-ions that a name gives are not always drawn.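 Tested at 5 concentrations; 48 h exposure; 96-well plates; endpoints linearly interpolated, else capped at highest concentration. GI50 is the concentration that inhibits growth by half.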 Active and inactive are the calls of the source. Rule as the data show it: active = GI50 up to about 1.1 µM and inactive = higher.

Tests used:
Experiment in all cases: NCI tumour cell line growth inhibition, 48 h
[1] = tested on: 786-0
[2] = tested on: A498
[3] = tested on: A549
[4] = tested on: ACHN
[5] = tested on: CAKI-1
[6] = tested on: CCRF-CEM
[7] = tested on: COLO 205
[8] = tested on: DMS-273
[9] = tested on: EKVX
[10] = tested on: HCC 2998
[11] = tested on: HCT-116
[12] = tested on: HL-60
[13] = tested on: HOP-18
[14] = tested on: HOP-62
[15] = tested on: HT-29
[16] = tested on: IGROV-1
[17] = tested on: K562
[18] = tested on: KM-20L2
[19] = tested on: KM12
[20] = tested on: LOX IMVI
[21] = tested on: LXFL 529
[22] = tested on: M14
[23] = tested on: M19-MEL
[24] = tested on: MOLT-4
[25] = tested on: Malme-3M
[26] = tested on: NCI-H226
[27] = tested on: NCI-H23
[28] = tested on: NCI-H460
[29] = tested on: NCI-H522
[30] = tested on: OVCAR-3
[31] = tested on: OVCAR-4
[32] = tested on: OVCAR-5
[33] = tested on: OVCAR-8
[34] = tested on: RXF 393
[35] = tested on: SF-268
[36] = tested on: SF-295
[37] = tested on: SF-539
[38] = tested on: SK-MEL-28
[39] = tested on: SK-MEL-2
[40] = tested on: SK-OV-3
[41] = tested on: SN12C
[42] = tested on: SNB-19
[43] = tested on: SNB-78
[44] = tested on: SR
[45] = tested on: SW-620
[46] = tested on: TK-10
[47] = tested on: U-251
[48] = tested on: UACC-257
[49] = tested on: UACC-62
[50] = tested on: UO-31
[51] = tested on: XF498
[52] = tested on: BT-549
[53] = tested on: DLD-1
[54] = tested on: DMS-114
[55] = tested on: DU-145
[56] = tested on: HCT-15
[57] = tested on: HOP-92
[58] = tested on: Hs-578T
[59] = tested on: MCF7
[60] = tested on: MDA-MB-231
[61] = tested on: MDA-MB-435
[62] = tested on: MDA-N
[63] = tested on: NCI/ADR-RES
[64] = tested on: PC-3
[65] = tested on: RPMI-8226
[66] = tested on: SK-MEL-5
[67] = tested on: SNB-75
[68] = tested on: T47D

Measured: GI50

Fc1ccccc1C1CC(c2ccc3ccccc3c2)=Nc2ccccc2S1 (stereo not drawn)
inactive: [1] > 100 µM | [2] > 100 µM | [3] > 100 µM | [4] > 100 µM | [5] > 100 µM | [6] > 100 µM | [7] > 100 µM | [8] > 100 µM | [9] > 100 µM | [10] 4.27 µM | [11] > 100 µM | [12] > 100 µM | [13] > 100 µM | [14] > 100 µM | [15] > 100 µM | [16] > 100 µM | [17] > 10 µM | [18] > 100 µM | [19] > 100 µM | [20] > 100 µM | [21] > 100 µM | [22] > 100 µM | [23] > 100 µM | [24] > 100 µM | [25] > 100 µM | [26] > 100 µM | [27] > 100 µM | [28] > 100 µM | [29] > 100 µM | [30] > 100 µM | [31] > 100 µM | [32] > 100 µM | [33] > 100 µM | [34] > 100 µM | [35] > 100 µM | [36] > 100 µM | [37] > 100 µM | [38] > 100 µM | [39] > 100 µM | [40] > 100 µM | [41] > 100 µM | [42] > 100 µM | [43] > 100 µM | [44] > 100 µM | [45] > 100 µM | [46] > 100 µM | [47] > 100 µM | [48] > 100 µM | [49] > 100 µM | [50] > 100 µM | [51] > 100 µM

C[C@]12C=CC(=O)C=C1[C@@H](F)C[C@H]1[C@@H]3CC[C@](O)(C(=O)CO)[C@@]3(C)C[C@H](O)[C@@]12F
active: [6] 0.543 µM
inactive: [1] > 100 µM | [2] > 100 µM | [3] > 100 µM | [4] > 100 µM | [52] > 100 µM | [5] > 100 µM | [7] > 100 µM | [53] > 100 µM | [54] > 100 µM | [8] > 100 µM | [55] > 100 µM | [9] > 64.4 µM | [10] > 100 µM | [11] > 100 µM | [12] > 100 µM | [14] > 100 µM | [57] > 100 µM | [15] > 100 µM | [58] > 100 µM | [16] > 100 µM | [17] > 100 µM | [18] > 100 µM | [19] > 100 µM | [20] > 100 µM | [21] > 100 µM | [22] > 100 µM | [23] > 100 µM | [59] > 100 µM | [60] > 100 µM | [61] > 100 µM | [62] > 100 µM | [24] > 100 µM | [25] > 100 µM | [26] 52.6 µM | [27] > 100 µM | [28] > 100 µM | [29] > 100 µM | [63] > 100 µM | [30] > 100 µM | [31] > 100 µM | [32] > 59.6 µM | [33] > 100 µM | [64] > 100 µM | [65] > 87.5 µM | [34] > 85.5 µM | [35] > 100 µM | [36] > 100 µM | [37] > 100 µM | [38] > 100 µM | [39] > 100 µM | [66] > 100 µM | [40] 3.33 µM | [41] > 100 µM | [42] > 100 µM | [67] > 100 µM | [43] > 84.1 µM | [44] > 100 µM | [45] > 100 µM | [68] > 100 µM | [46] > 100 µM | [47] > 100 µM | [48] > 100 µM | [49] > 100 µM | [50] > 100 µM | [51] 97.7 µM
> 100 µM: [56]

CCC(C)CNC1=C(NC(C)=O)C(=O)c2ccccc2C1=O (stereo not drawn)
inactive: [1] > 100 µM | [3] > 100 µM | [4] > 100 µM | [6] > 100 µM | [7] 78.9 µM | [53] > 100 µM | [8] > 100 µM | [9] > 100 µM | [10] > 100 µM | [11] > 100 µM | [12] > 100 µM | [14] > 100 µM | [15] > 100 µM | [16] > 100 µM | [17] > 100 µM | [18] > 100 µM | [19] > 100 µM | [20] > 100 µM | [21] > 100 µM | [22] > 100 µM | [23] 20.7 µM | [24] > 100 µM | [25] 35.5 µM | [26] > 100 µM | [27] 67.8 µM | [28] 94.6 µM | [29] 78.2 µM | [30] 55.7 µM | [31] > 100 µM | [33] > 100 µM | [34] > 100 µM | [35] > 100 µM | [36] > 100 µM | [37] > 100 µM | [38] > 100 µM | [39] > 100 µM | [66] 31.6 µM | [40] > 100 µM | [41] > 100 µM | [42] > 100 µM | [67] > 100 µM | [43] > 100 µM | [44] > 100 µM | [45] > 100 µM | [46] > 100 µM | [47] > 100 µM | [48] > 100 µM | [49] > 100 µM | [50] > 100 µM | [51] > 100 µM
> 100 µM: [56]

CCN(CC)CCNc1ccc(CO)c2sc3ccccc3c(=O)c12 [HYCANTHONE MESYLATE]
inactive: [2] 6.1 µM | [3] 5.08 µM | [52] 13.5 µM | [5] 9.02 µM | [54] 8.71 µM | [8] 5.57 µM | [55] 9.57 µM | [9] 10.5 µM | [11] 3.34 µM | [57] 2.75 µM | [18] 8.2 µM | [23] 13.3 µM | [61] 3.27 µM | [62] 5.12 µM | [24] 1.63 µM | [26] 8.91 µM | [27] 9.48 µM | [28] 3.05 µM | [29] 3.78 µM | [31] 4.45 µM | [32] 6.95 µM | [33] 5.15 µM | [64] 5.81 µM | [65] 12.9 µM | [34] 5.19 µM | [35] 6.7 µM | [36] 8.26 µM | [37] 11 µM | [38] 9.68 µM | [42] 11.4 µM | [43] 13.4 µM | [44] 2.83 µM | [45] 2.75 µM | [68] 11.5 µM | [46] 12.1 µM | [47] 8.89 µM | [48] 11.6 µM | [49] 14.7 µM | [50] 4.1 µM | [51] 11.6 µM

Cc1cccc(NC(=O)CC2C(=O)Nc3ccccc3S2(=O)=O)c1C (stereo not drawn)
40.6 µM: [56]
inactive: [1] 29 µM | [2] 30.3 µM | [3] 31.2 µM | [4] 23.2 µM | [5] 66.8 µM | [7] > 100 µM | [53] 49.7 µM | [54] 20.3 µM | [8] 25.8 µM | [9] > 100 µM | [10] 28.1 µM | [11] 17.2 µM | [12] 23.3 µM | [13] 22.1 µM | [14] 22.6 µM | [57] 19.1 µM | [15] 33.2 µM | [16] 26.1 µM | [17] 9.18 µM | [18] 39.4 µM | [19] 30.8 µM | [21] 36.9 µM | [22] 25.4 µM | [23] 32.5 µM | [24] 47.9 µM | [25] 22.9 µM | [26] 25 µM | [27] 16.7 µM | [28] 22.6 µM | [29] 16.6 µM | [30] 21.7 µM | [31] 16.5 µM | [32] > 100 µM | [33] 20.2 µM | [34] 17.9 µM | [35] 33.2 µM | [36] 58.1 µM | [37] 19.8 µM | [38] 77.6 µM | [39] 23.4 µM | [66] 28.6 µM | [40] 21.9 µM | [41] 97.5 µM | [42] 32.1 µM | [67] 16.9 µM | [43] 26.1 µM | [44] 11.1 µM | [45] 28.2 µM | [46] 28.9 µM | [47] 27 µM | [48] 26.9 µM | [49] 18.6 µM | [50] 20.9 µM
